In brackets after ≈: the same amount, converted by molar mass. Read-outs that look alike come from different tables or passages of the source.
Experiments:
[1] = Solubility of drug and phosphate prodrug; assay type: physicochemical
Description: In contrast, Compound 4 is highly polar at neutral pH. Measured solubility values are consistent with the predicted cLogD values at pH=7.5.

[2] = tested on: TEL-Syk-transformed cells; assay: Proliferation (DNA content) and differentiation of TEL-Syk-transformed pre-B cells; assay type: cell-based
Method: Cells were cultured for 3 days in the absence of IL-7 and analyzed for the expression of kappa LC by FACS. Experiments showing the inhibition of proliferation of Syk-transformed cells by a Syk inhibitory compound are described in […]., Abe, A., and Jumaa, H., “The protein tyrosine kinase Syk is involved in malignant transformation and leukemia development,” (manuscript in preparation). The experiments described in the manuscript are briefly summarized below. Aberrant Syk variants resulting from chromosomal translocation Tel-Syk were tested for its ability to transform pre-B cells by retrovirally transducing freshly isolated bone marrow pre-B cells with IRES-GFP vectors expressing Tel-Syk. […] Transformation of the pre B cells by Tel-Syk activity was confirmed by injecting the TEL-SYK transduced cells into RAG/γC-/- mice, which led to animals presenting symptoms of myelodysplastic disease. […] To test whether inhibition of Syk activity in the cells transformed with Tel-Syk block cell proliferation, the effect of Syk kinase inhibitor 2,4-pyrimidinediamine compound IV was tested in vitro by examining the DNA content of treated cells.

[3] = tested on: Myc-transformed pre-B cells; assay: Proliferation (DNA content) of Myc-transformed pre-B cells; assay type: cell-based; conditions: 36 hours, 2 μM
Description: FIG. 2A is a FACS profile of pre-B cells that were transduced with Myc expression vectors and cultured in the absence of IL-7 for 1 week.
To determine the effect of Syk inhibitor on proliferation of leukemic cells, several tumorigenic pre-B cell lines that induce leukemia after injection into mice were used. Because tumorigenic cells need the pre-B cell receptor (pre-BCR) for proliferation, and Syk is a critical protein for pre-BCR signaling cascade, it is expected that Syk inhibitors will inhibit proliferation of these tumorigenic pre-B cells. […] Cells were injected into […] mice to examine their ability to proliferate in vivo.

[4] = tested on: tumorigenic SLP-65−/− pre-B cell lines; assay: Proliferation (DNA content) of tumorigenic SLP-65-/- pre-B cell lines; assay type: cell-based; conditions: 36 hours, 2 μM
[5] = Pharmacokinetics in NOD-SCID mice after PO VII calcium salt (plasma VI); assay type: in vivo; design: T-max (Compound VI in plasma): unit not given here
Method: Initial PK data in NOD-SCID mice was generated in an intial study prior to dosing in this study.
Due to precipitates observed in on-study formulations prepared in the initial study and other studies, additional PK data was obtained using remaining dosing solutions after study termination. NOD-SCID female mice (n=4) were dosed with 40 mg/kg dose solution of VII and plasma obtained at 1 hour post dose.
Table 5A and 5B: PO administration of VII Calcium Salt: Mean Concentration of Compound VI in Plasma (ng/mL).

[6] = tested on: AML cells harboring Flt-3 ITD; assay: Apoptosis of AML cells (Annexin V and PI staining); assay type: cell-based; conditions: 1 uM, 48 h
Method: (§1) AML cells or 32D transfectants were treated for 48 h (AML) or 24 h (32D) with 1 uM VI, and the increase in % of apoptotic cells was determined using Annexin V and PI staining.

[7] = tested on: 32D transfected with ITD or point mutated Flt-3; assay: Apoptosis of 32D transfectants (Annexin V and PI staining); assay type: cell-based; conditions: 1 uM, 24 h
Method: as §1

[8] = GLP mutagenicity and clastogenicity studies (Ames, chromosomal aberration, mouse micronucleus)
Method: (§2) GLP toxicology studies included negative mutagenicity and clastogenicity studies (Ames, chromosomal aberration, and mouse micronucleus). […] The No Observed Adverse Effect Level (NOAEL) is 10-30 mg/kg/day for rats and 100 mg/kg/day for monkeys.

[9] = in vivo
Method: as §2

[10] = tested on: MV4-11 human acute myeloid leukemia cells; assay: Subcutaneous MV4-11 tumor growth (initial studies); assay type: in vivo, mice
Description: The Flt-3 ITD mutation has been associated with poor prognosis and reduced remission rates in affected AML patients, making it an attractive target for therapeutic intervention. Studies have shown that mutant Flt-3 ITD receptors dimerize in a Flt-3 ligand-independent manner and auto-phosphorylation of the receptor results in constitutive activation, increased proliferation, and growth factor independence of the mutant cell.

With COc1cc(Nc2ncc(F)c(Nc3ccc4c(n3)NC(=O)C(C)(C)O4)n2)cc(OC)c1OC [Compound III, N4-(2,2-dimethyl-3-oxo-4H-5-pyrido[1,4]oxazin-6-yl)-5-fluoro-N2-(3,4,5-trimethoxyphenyl)-2,4-pyrimidinediamine] the solubility ([1]; aqueous buffer, phosphate buffer at pH=7.5, read-out: measured solubility) was less than 1 µg/mL, the solubility ([1]; water solubility, read-out: Solubility) was 1 to 2 µg/mL (≈ 2.13 to 4.25 µM) and the “differentiation of TEL-Syk-transformed pre-B cells (kappa light chain expression)” value [2] was “induce differentiation”. For the same compound, the “proliferation of TEL-Syk-transformed pre-B cells” value ([2]; DNA content, 36 hours, 2 μM) was “block proliferation”, the “proliferation of Myc-transformed pre-B cells” value [3] was “block the proliferation” and the “proliferation of tumorigenic SLP-65−/− pre-B cell lines” value [4] was “block the proliferation”. The “plasma levels of VI by 6 hours post-dose” value ([5]; female mice, 20, 40 or 80 mg/kg doses of VII) was “virtually undetectable”, the “induced apoptosis of AML cells harboring Flt-3 ITD” value [6] was “uniquely sensitive” and the “apoptosis of 32D transfected with ITD or point mutated Flt-3 vs wt Flt-3” value [7] was “undergo more apoptosis”. The “mutagenicity and clastogenicity (Ames, chromosomal aberration, mouse micronucleus)” value [8] was “negative”, the “28-day toxicity: hematology, bone marrow cellularity” value ([9]; monkey) was “reversible effect” and the “28-day toxicity: hematology, liver transaminase, spleen and thymus size, bone marrow cellularity” value ([9]; rat) was “reversible effect”.

With “N4-(2,2-dimethyl-4-[(dihydrogen phosphonoxy)methyl]-3-oxo-5-pyrido[1,4]oxazin-6-yl)-5-fluoro-N2-(3,4,5-trimethoxyphenyl)-2,4-pyrimidinediamine mono calcium salt [Compound 6]” the “AUCinf (Compound VI in plasma)” value ([5]; PO 20 mg/kg, Female) was 5362 ng·h/mL, the “AUClast (Compound VI in plasma)” value ([5]; PO 20 mg/kg, Female) was 5351 ng·h/mL and the “C-max (Compound VI in plasma)” value ([5]; PO 20 mg/kg, Female) was 3717 ng/mL. The “T1/2 (Compound VI in plasma)” value ([5]; PO 20 mg/kg, Female) was 35.4 min, the “T-max (Compound VI in plasma)” value ([5]; PO 20 mg/kg, Female) was 0.25 and the “Mean Concentration of Compound VI in Plasma” value (“Mean Concentration” for short) ([5]; PO 20 mg/kg, Female, 0.25 hrs) was 3717 ng/mL. For the same compound, the “Mean Concentration” value ([5]; PO 20 mg/kg, Female, 0.5 hrs) was 2240 ng/mL, the “Mean Concentration” value ([5]; PO 20 mg/kg, Female, 1 hrs) was 1737 ng/mL and the “Mean Concentration” value ([5]; PO 20 mg/kg, Female, 2 hrs) was 1438 ng/mL. For the same compound, the “Mean Concentration” value ([5]; PO 20 mg/kg, Female, 4 hrs) was 55.0 ng/mL, the “Mean Concentration” value ([5]; PO 20 mg/kg, Female, 6 hrs) was 13.0 ng/mL and the “AUCinf (Compound VI in plasma)” value ([5]; PO 20 mg/kg, Male) was 11434 ng·h/mL. For the same compound, the “AUClast (Compound VI in plasma)” value ([5]; PO 20 mg/kg, Male) was 10261 ng·h/mL, the “C-max (Compound VI in plasma)” value ([5]; PO 20 mg/kg, Male) was 3377 ng/mL and the “T1/2 (Compound VI in plasma)” value ([5]; PO 20 mg/kg, Male) was 107 min. For the same compound, the “T-max (Compound VI in plasma)” value ([5]; PO 20 mg/kg, Male) was 0.50, the “Mean Concentration” value ([5]; PO 20 mg/kg, Male, 0.25 hrs) was 1872 ng/mL and the “Mean Concentration” value ([5]; PO 20 mg/kg, Male, 0.5 hrs) was 3377 ng/mL. For the same compound, the “Mean Concentration” value ([5]; PO 20 mg/kg, Male, 1 hrs) was 3280 ng/mL, the “Mean Concentration” value ([5]; PO 20 mg/kg, Male, 2 hrs) was 2130 ng/mL and the “Mean Concentration” value ([5]; PO 20 mg/kg, Male, 4 hrs) was 1209 ng/mL. The “Mean Concentration” value ([5]; PO 20 mg/kg, Male, 6 hrs) was 454 ng/mL, the “AUCinf (Compound VI in plasma)” value ([5]; PO 40 mg/kg, Female) was 11625 ng·h/mL and the “AUClast (Compound VI in plasma)” value ([5]; PO 40 mg/kg, Female) was 11498 ng·h/mL. The “C-max (Compound VI in plasma)” value ([5]; PO 40 mg/kg, Female) was 5497 ng/mL, the “T1/2 (Compound VI in plasma)” value ([5]; PO 40 mg/kg, Female) was 50.4 min and the “T-max (Compound VI in plasma)” value ([5]; PO 40 mg/kg, Female) was 1.00. The “Mean Concentration” value ([5]; PO 40 mg/kg, Female, 0.25 hrs) was 5140 ng/mL, the “Mean Concentration” value ([5]; PO 40 mg/kg, Female, 0.5 hrs) was 3597 ng/mL and the “Mean Concentration” value ([5]; PO 40 mg/kg, Female, 1 hrs) was 5497 ng/mL. The “Mean Concentration” value ([5]; PO 40 mg/kg, Female, 2 hrs) was 2823 ng/mL, the “Mean Concentration” value ([5]; PO 40 mg/kg, Female, 4 hrs) was 201 ng/mL and the “Mean Concentration” value ([5]; PO 40 mg/kg, Female, 6 hrs) was 105 ng/mL. For the same compound, the “AUCinf (Compound VI in plasma)” value ([5]; PO 40 mg/kg, Male) was 27170 ng·h/mL, the “AUClast (Compound VI in plasma)” value ([5]; PO 40 mg/kg, Male) was 20831 ng·h/mL and the “C-max (Compound VI in plasma)” value ([5]; PO 40 mg/kg, Male) was 6370 ng/mL. The “T1/2 (Compound VI in plasma)” value ([5]; PO 40 mg/kg, Male) was 138 min, the “T-max (Compound VI in plasma)” value ([5]; PO 40 mg/kg, Male) was 2.00 and the “Mean Concentration” value ([5]; PO 40 mg/kg, Male, 0.25 hrs) was 3587 ng/mL. The “Mean Concentration” value ([5]; PO 40 mg/kg, Male, 0.5 hrs) was 2860 ng/mL, the “Mean Concentration” value ([5]; PO 40 mg/kg, Male, 1 hrs) was 5250 ng/mL and the “Mean Concentration” value ([5]; PO 40 mg/kg, Male, 2 hrs) was 6370 ng/mL. The “Mean Concentration” value ([5]; PO 40 mg/kg, Male, 4 hrs) was 1730 ng/mL, the “Mean Concentration” value ([5]; PO 40 mg/kg, Male, 6 hrs) was 1909 ng/mL and the “AUCinf (Compound VI in plasma)” value ([5]; PO 80 mg/kg, Female) was 27662 ng·h/mL. For the same compound, the “AUClast (Compound VI in plasma)” value ([5]; PO 80 mg/kg, Female) was 27013 ng·h/mL, the “C-max (Compound VI in plasma)” value ([5]; PO 80 mg/kg, Female) was 8193 ng/mL and the “T1/2 (Compound VI in plasma)” value ([5]; PO 80 mg/kg, Female) was 58.2 min. The “T-max (Compound VI in plasma)” value ([5]; PO 80 mg/kg, Female) was 2.00, the “Mean Concentration” value ([5]; PO 80 mg/kg, Female, 0.25 hrs) was 3847 ng/mL and the “Mean Concentration” value ([5]; PO 80 mg/kg, Female, 0.5 hrs) was 7433 ng/mL. The “Mean Concentration” value ([5]; PO 80 mg/kg, Female, 1 hrs) was 7267 ng/mL, the “Mean Concentration” value ([5]; PO 80 mg/kg, Female, 2 hrs) was 8193 ng/mL and the “Mean Concentration” value ([5]; PO 80 mg/kg, Female, 4 hrs) was 2529 ng/mL. The “Mean Concentration” value ([5]; PO 80 mg/kg, Female, 6 hrs) was 465 ng/mL and the subcutaneous tumor growth [10] was “reduced subcutaneous tumor growth”.
